Structures can show the parent of a compound that is named as a salt.
Columns and labels:
[1] = tested on: Langendorff's isolated heart (coronary flow); test: Langendorff isolated heart (increase in coronary flow); details: tested at 30.0 to 0.01 micromolar
Method: In addition to their utility in the treatment of hypertension, the compounds of formula (I) are useful in the treatment of the symptoms of angina pectoris by virtue of their ability to dilate coronary arteries. Their activity was measured using the "Langendorff's isolated heart" preparation. This test has been described in "Pharmacological Experiments on Isolated Preparations", Staff of the Department of Pharmacology, University of Edinbourgh, 2nd Ed., Churchill Livingstone, N.Y., 1970, pp 112-119. The test compounds were administered at concentrations of 30.0, 10.0, 3.0, 1.0, 0.3, 0.1, 0.03 and 0.01 micromolar (10^-6 molar). The minimum concentration EC30) needed to elicit a 30% increase in coronary flow is shown in Table I for compounds of formula (I).

[2] = tested on: spontaneously hypertensive rats (mean arterial pressure); test: Spontaneously Hypertensive Rat (SHR) test, fall in mean arterial pressure; type: in vivo; details: active if fall >15 mm of Hg
Method: The activity of compounds of formula (I) for the treatment of hypertension was determined using the Spontaneously Hypertensive Rat (SHR) test as described below. Spontaneously Hypertensive Rat Test In this test, the arterial pressure of adult spontaneously hypertensive rats (Charles River) is monitored directly via an aortic cannula. The SH rats are anesthetized with an inhalation anesthetic (ether). The left carotoid artery is isolated and cannulated. The tip of the cannula is advanced to the aorta and the cannula is exteriorized behind the neck at the level of the scapula. Animals are placed in individual cages, allowed to recover from the anesthetic and are kept unrestrained. The arterial cannula is connected to a pressure transducer which is attached to a recorder. The test compounds are administered to at least 3 rats at doses selected in the range of 0.1 to 100 mg/kg of body weight by i.p. or p.o. routes of administration. The arterial pressure and heart rate are monitored for a minimum of 24 hr. A test compound is considered to be active as an antihypertensive agent if the mean arterial pressure (MAP) indicates a fall (δMAP) of >15 mm of Hg. Each animal serves as its own control.

| Structure (SMILES) | Langendorff EC30 (minimum concentration needed to elicit a 30% increase in coronary flow) [1] | SHR δMAP (change in mean arterial pressure) ([2]; 10 mg/kg i.p.) | SHR δMAP (change in mean arterial pressure) ([2]; 30 mg/kg i.p.) | SHR δMAP (change in mean arterial pressure) ([2]; 30 mg/kg p.o.) |
| --- | --- | --- | --- | --- |
| CC(C)COCC(CN1Cc2ccccc2Cc2ccccc21)N1CCCC1 (centres unmarked) [Example 1, 5,6-Dihydro-5-[3-(2-methylpropoxy)-2-(1-pyrrolidinyl)-propyl]-11H -dibenz[b,e]azepine] | .013 10^-6 M | -37 mm of Hg | -65 mm of Hg | – |
| CC(C)COCC(CN1Cc2ccccc2CCc2ccccc21)N1CCCC1 (stereo not drawn) [Example 2b, 5,6,11,12-Tetrahydro-5-beta-[3-(2-methylpropoxy)-2-(1-pyrrolidinyl)propyl]dibenz[b,f]azocine Hydrate (5:1)] | .150 10^-6 M | – | – | -25 mm of Hg |
| CC(C)(C)COCC(CN1Cc2ccccc2Cc2ccccc21)N1CCCC1.O=C(O)/C=C/C(=O)O (centres unmarked) [Example 3c, 5,6-Dihydro-5-[3-(2,2-dimethylpropoxy)-2-(1-pyrrolidinyl)propyl]-11H-dibenz[b,e]azepine (E)-2-Butenedioate] | .004 10^-6 M | -54 mm of Hg | – | -2 mm of Hg |
| CC(C)COCC(CN1c2ccccc2CCc2ccccc21)N1CCCC1 (centres unmarked) [Example 4, 10,11-dihydro-5-[3-(2-methylpropoxy)-2-(1-pyrrolidinyl)propyl]-5H-dibenz[b,f]azepine] | .011 10^-6 M | -65 mm of Hg | – | – |
| CC(C)(C)COCC(CN1Cc2ccccc2Oc2ccccc21)N1CCCC1.O=C(O)/C=C/C(=O)O (centres unmarked) [Example 5b, 10,11-Dihydro-10-[3-(2,2-dimethylpropoxy)-2-(1-pyrrolidinyl)propyl]dibenz[b,f][1,4]oxazepine (E)-2-Butenedioate] | .04 10^-6 M | -70 mm of Hg | – | -20 mm of Hg |
| CC(C)(C)COCC(CN1c2ccccc2C=Cc2ccccc21)N1CCCC1 (centres unmarked) [Example 6, 5-[3-(2,2 Dimethylpropxy)-2-(1-pyrrolidinyl)propyl]-5H-dibenz[b,f]azepine Hydrochloride] | .001 10^-6 M | -27 mm of Hg | – | – |
| CC1(COCC(CN2c3ccccc3Oc3ccccc32)N2CCCC2)CCCCC1.Cl (centres unmarked) [Example 7d, 10-[3-[(1-Methylcyclohexyl)methoxy]-2-(1-pyrrolidinyl)-propyl]-10H-phenoxazine Hydrochloride (1:1)] | .012 10^-6 M | – | – | -24 mm of Hg |
| CC1(COCC(CN2c3ccccc3C=Cc3ccccc32)N2CCCC2)CCCCC1 (centres unmarked) [Example 8, 5-[3-[(1-methylcyclohexyl)methoxy]-2-(1-pyrrolidinyl)propyl]-5H-dibenz[b,f]azepine] | .0037 10^-6 M | – | – | -12 mm of Hg |
| CC(C)COCC(CN1c2ccccc2Sc2ccccc21)N1CCCC1 (centres unmarked) [Example 9, 10-[3-(2-Methylpropoxy)-2-(1-pyrrolidinyl)propyl]-10H-phenothiazine] | .30 10^-6 M | -22 mm of Hg | – | -19 mm of Hg |
| C=C(C)COCC(CN1c2ccccc2C=Cc2ccccc21)N1CCCC1 (centres unmarked) [Example 10, 5-[3-(2-methyl-2-propenoxy)-2-(1-pyrrolidinyl)propyl]-5H-dibenz[b,f]azepine] | – | – | – | -25 mm of Hg |

From patent publication US4888335A, “3-alkoxy-2-aminopropyl heterocyclic amines and their use as cardiovascular agents” (McNeilab, Inc., priority 1988, dated 1989)
